Data taken from patent US20090298820A1, “3-SUBSTITUTED-1H-PYRROLO[2,3-B]PYRIDINE AND 3-SUBSTITUTED-1H-PYRROLO[3,2-B]PYRIDINE COMPOUNDS, THEIR USE AS MTOR KINASE AND PI3 KINASE INHIBITORS, AND THEIR SYNTHESES” (Wyeth, priority 2008, published 2009).
pIC50: −log10 of the molar value.

How the values were obtained:
[1] = target: PI3Kα (Homo sapiens, UniProt P42336); test: PI3K-alpha fluorescence polarization assay; format: biochemical; conditions: read-out: PI3Kα Median IC50
[2] = target: PI3Kγ (Homo sapiens, UniProt P48736); test: PI3K-gamma fluorescence polarization assay; format: biochemical; conditions: read-out: PI3Kγ Median IC50
Sequence of PI3Kγ (P48736 whole entry, species assumed): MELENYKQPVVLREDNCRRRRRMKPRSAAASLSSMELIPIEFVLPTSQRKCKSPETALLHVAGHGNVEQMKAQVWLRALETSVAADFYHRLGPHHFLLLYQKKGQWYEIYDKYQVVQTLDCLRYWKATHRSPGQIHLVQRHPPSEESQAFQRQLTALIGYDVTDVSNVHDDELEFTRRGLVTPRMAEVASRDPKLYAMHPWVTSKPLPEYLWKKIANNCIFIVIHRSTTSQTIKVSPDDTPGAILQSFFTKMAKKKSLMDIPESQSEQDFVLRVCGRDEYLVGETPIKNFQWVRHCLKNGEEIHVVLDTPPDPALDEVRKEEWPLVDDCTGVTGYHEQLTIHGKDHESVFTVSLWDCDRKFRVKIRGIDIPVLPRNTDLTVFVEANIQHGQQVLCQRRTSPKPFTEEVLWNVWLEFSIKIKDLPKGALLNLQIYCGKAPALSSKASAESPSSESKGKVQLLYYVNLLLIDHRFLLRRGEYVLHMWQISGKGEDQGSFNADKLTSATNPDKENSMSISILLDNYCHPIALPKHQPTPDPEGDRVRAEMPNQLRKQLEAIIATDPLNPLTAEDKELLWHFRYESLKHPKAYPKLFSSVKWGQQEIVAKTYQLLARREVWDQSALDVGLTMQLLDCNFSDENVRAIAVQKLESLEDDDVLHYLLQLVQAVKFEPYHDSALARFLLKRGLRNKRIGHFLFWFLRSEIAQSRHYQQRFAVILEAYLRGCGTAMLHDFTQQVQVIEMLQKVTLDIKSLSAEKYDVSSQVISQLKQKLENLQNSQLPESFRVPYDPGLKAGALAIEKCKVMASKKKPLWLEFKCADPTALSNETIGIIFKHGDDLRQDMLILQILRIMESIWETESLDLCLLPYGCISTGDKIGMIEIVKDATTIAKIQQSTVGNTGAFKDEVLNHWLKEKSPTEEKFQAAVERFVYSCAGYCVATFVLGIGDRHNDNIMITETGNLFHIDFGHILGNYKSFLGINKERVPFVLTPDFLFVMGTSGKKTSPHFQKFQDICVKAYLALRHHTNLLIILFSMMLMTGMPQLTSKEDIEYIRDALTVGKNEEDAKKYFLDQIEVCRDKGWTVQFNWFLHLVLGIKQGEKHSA

[3] = target: mTOR (Homo sapiens, UniProt P42345); test: mTOR enzyme assay (DELFIA format, His6-S6K substrate); format: biochemical; conditions: read-out: mTOR Kinase Median IC50

Sequence of PI3Kα (P42336 whole entry, species assumed): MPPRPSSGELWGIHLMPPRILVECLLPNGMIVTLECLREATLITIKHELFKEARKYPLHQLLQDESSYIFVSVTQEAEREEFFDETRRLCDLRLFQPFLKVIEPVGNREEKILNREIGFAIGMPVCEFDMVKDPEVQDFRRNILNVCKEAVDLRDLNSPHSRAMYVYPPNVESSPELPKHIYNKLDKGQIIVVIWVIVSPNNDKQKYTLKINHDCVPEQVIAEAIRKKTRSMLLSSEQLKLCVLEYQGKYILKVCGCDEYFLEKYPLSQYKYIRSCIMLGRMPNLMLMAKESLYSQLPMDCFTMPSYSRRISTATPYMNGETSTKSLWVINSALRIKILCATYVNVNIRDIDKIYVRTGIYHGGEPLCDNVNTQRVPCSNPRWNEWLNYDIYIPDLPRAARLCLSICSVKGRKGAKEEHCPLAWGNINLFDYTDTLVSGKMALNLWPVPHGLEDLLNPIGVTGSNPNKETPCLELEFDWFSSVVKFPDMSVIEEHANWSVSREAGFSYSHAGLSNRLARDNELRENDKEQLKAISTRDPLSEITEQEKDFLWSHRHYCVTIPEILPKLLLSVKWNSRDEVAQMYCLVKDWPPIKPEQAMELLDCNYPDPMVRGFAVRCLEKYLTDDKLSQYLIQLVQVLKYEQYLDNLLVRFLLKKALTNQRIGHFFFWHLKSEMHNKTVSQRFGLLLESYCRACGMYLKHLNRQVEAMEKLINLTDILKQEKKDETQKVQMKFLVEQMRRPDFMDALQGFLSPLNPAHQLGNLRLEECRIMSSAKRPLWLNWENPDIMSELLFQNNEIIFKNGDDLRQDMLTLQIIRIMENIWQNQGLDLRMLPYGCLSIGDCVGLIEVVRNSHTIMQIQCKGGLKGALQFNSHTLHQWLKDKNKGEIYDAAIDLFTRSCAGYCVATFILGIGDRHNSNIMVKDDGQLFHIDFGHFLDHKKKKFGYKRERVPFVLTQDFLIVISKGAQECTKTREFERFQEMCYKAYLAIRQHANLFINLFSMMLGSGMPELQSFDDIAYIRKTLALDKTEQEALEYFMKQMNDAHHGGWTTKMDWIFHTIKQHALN
Sequence of PI3Kα (P27986 whole entry partner, species assumed): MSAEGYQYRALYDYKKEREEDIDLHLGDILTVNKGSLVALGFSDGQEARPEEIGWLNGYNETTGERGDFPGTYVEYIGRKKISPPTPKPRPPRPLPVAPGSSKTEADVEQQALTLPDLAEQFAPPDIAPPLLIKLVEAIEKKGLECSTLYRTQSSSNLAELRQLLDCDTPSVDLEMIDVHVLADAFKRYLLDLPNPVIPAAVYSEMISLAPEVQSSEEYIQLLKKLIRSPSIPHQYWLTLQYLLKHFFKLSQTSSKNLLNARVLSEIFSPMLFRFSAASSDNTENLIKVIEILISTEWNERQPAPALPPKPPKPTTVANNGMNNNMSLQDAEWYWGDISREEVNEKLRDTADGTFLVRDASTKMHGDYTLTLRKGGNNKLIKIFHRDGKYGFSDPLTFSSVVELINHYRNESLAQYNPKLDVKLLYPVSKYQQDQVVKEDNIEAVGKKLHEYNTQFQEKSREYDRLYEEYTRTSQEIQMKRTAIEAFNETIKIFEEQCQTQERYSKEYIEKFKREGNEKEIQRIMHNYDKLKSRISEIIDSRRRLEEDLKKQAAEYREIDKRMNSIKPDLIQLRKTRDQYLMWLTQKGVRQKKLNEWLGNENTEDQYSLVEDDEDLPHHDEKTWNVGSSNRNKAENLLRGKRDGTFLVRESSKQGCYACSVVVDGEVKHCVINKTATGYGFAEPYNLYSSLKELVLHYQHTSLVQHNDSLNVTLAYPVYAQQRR

SMILES | pIC50 [1] | pIC50 [2] | pIC50 [3] | melting point
CN(C)CCCNC(=O)Nc1ccc2c(c1)C(=O)/C(=C/c1cn(C)c3nccc(N4CC5CCC(C4)O5)c13)O2 [Compound 241, 1-[3-(dimethylamino)propyl]-3-[(2Z)-2-{[1-methyl-4-(8-oxa-3-azabicyclo[3.2.1]oct-3-yl)-1H-pyrrolo[2,3-b]pyridin-3-yl]methylene}-3-oxo-2,3-dihydro-1-benzofuran-5-yl]urea] | 7.28 | 7.47 | 7.98 | 261 to 263 °C
COCCN(C)CCCNC(=O)Nc1ccc2c(c1)C(=O)/C(=C/c1cn(C)c3nccc(N4CC5CCC(C4)O5)c13)O2 [Compound 242, 1-{3-[(2-methoxyethyl)(methyl)amino]propyl}-3-[(2Z)-2-{[1-methyl-4-(8-oxa-3-azabicyclo[3.2.1]oct-3-yl)-1H-pyrrolo[2,3-b]pyridin-3-yl]methylene}-3-oxo-2,3-dihydro-1-benzofuran-5-yl]urea] | 6.61 | 6.11 | 7.19 | 158 to 163 °C
COCCN(C)C(=O)C1CCN(c2ccnc3c2c(/C=C2\Oc4ccc(NC(=O)Nc5cccnc5)cc4C2=O)cn3C)CC1 [Compound 246, N-(2-methoxyethyl)-N-methyl-1-{1-methyl-3-[(Z)-{3-oxo-5-[(pyridin-3-ylcarbamoyl)amino]-1-benzofuran-2(3H)-ylidene}methyl]-1H-pyrrolo[2,3-b]pyridin-4-yl}piperidine-4-carboxamide] | 5.85 | 5.81 | 7.52 | 282 to 285 °C
Cn1cc(/C=C2\Oc3ccc(NC(=O)Nc4cccnc4)cc3C2=O)c2c(N3CCC(C(=O)N4CC5CCC(C4)O5)CC3)ccnc21 [Compound 250, 1-[(2Z)-2-({1-methyl-4-[4-(8-oxa-3-azabicyclo[3.2.1]oct-3-ylcarbonyl)piperidin-1-yl]-1H-pyrrolo[2,3-b]pyridin-3-yl}methylene)-3-oxo-2,3-dihydro-1-benzofuran-5-yl]-3-pyridin-3-ylurea] | 5.78 | 5.55 | 7.77 | 260 to 265 °C
COCCN(CCOC)C(=O)C1CCN(c2ccnc3c2c(/C=C2\Oc4ccc(NC(=O)Nc5cccnc5)cc4C2=O)cn3C)CC1 [Compound 251, N,N-bis(2-methoxyethyl)-1-{1-methyl-3-[(Z)-{3-oxo-5-[(pyridin-3-ylcarbamoyl)amino]-1-benzofuran-2(3H)-ylidene}methyl]-1H-pyrrolo[2,3-b]pyridin-4-yl}piperidine-4-carboxamide] | 5.39 | 5.25 | 7.80 | 206 to 210 °C
CN(Cc1ccncc1)C(=O)C1CCN(c2ccnc3c2c(/C=C2\Oc4ccc(NC(=O)Nc5cccnc5)cc4C2=O)cn3C)CC1 [Compound 255, N-methyl-1-{1-methyl-3-[(Z)-{3-oxo-5-[(pyridin-3-ylcarbamoyl)amino]-1-benzofuran-2(3H)-ylidene}methyl]-1H-pyrrolo[2,3-b]pyridin-4-yl}-N-(pyridin-4-ylmethyl)piperidine-4-carboxamide] | 5.91 | 5.62 | 8.03 | 125 to 135 °C
CN(Cc1cccnc1)C(=O)C1CCN(c2ccnc3c2c(/C=C2\Oc4ccc(NC(=O)Nc5cccnc5)cc4C2=O)cn3C)CC1 [Compound 256, N-methyl-1-{1-methyl-3-[(Z)-{3-oxo-5-[(pyridin-3-ylcarbamoyl)amino]-1-benzofuran-2(3H)-ylidene}methyl]-1H-pyrrolo[2,3-b]pyridin-4-yl}-N-(pyridin-3-ylmethyl)piperidine-4-carboxamide] | 5.99 | 5.79 | 7.96 | 195 to 205 °C
CN(Cc1ccccn1)C(=O)C1CCN(c2ccnc3c2c(/C=C2\Oc4ccc(NC(=O)Nc5cccnc5)cc4C2=O)cn3C)CC1 [Compound 257, N-methyl-1-{1-methyl-3-[(Z)-{3-oxo-5-[(pyridin-3-ylcarbamoyl)amino]-1-benzofuran-2(3H)-ylidene}methyl]-1H-pyrrolo[2,3-b]pyridin-4-yl}-N-(pyridin-2-ylmethyl)piperidine-4-carboxamide] | 5.80 | 5.85 | 8.08 | 187 to 189 °C
Cn1cc(/C=C2\Oc3ccc(NC(=O)Nc4cccnc4)cc3C2=O)c2c(N3CCC(C(=O)Nc4cccnc4)CC3)ccnc21 [Compound 262, 1-{1-methyl-3-[(Z)-{3-oxo-5-[(pyridin-3-ylcarbamoyl)amino]-1-benzofuran-2(3H)-ylidene}methyl]-1H-pyrrolo[2,3-b]pyridin-4-yl}-N-pyridin-3-ylpiperidine-4-carboxamide] | 5.54 | 4.98 | 7.84 | 180 to 190 °C (dec.)
Cn1cc(/C=C2\Oc3ccc(NC(=O)Nc4cccnc4)cc3C2=O)c2c(N3CCC(C(=O)Nc4ccncc4)CC3)ccnc21 [Compound 263, 1-{1-methyl-3-[(Z)-{3-oxo-5-[(pyridin-3-ylcarbamoyl)amino]-1-benzofuran-2(3H)-ylidene}methyl]-1H-pyrrolo[2,3-b]pyridin-4-yl}-N-pyridin-4-ylpiperidine-4-carboxamide] | 4.81 | 5.09 | 7.60 | 230 to 235 °C (dec.)
Cn1cc(/C=C2\Oc3ccc(NC(=O)Nc4cccnc4)cc3C2=O)c2c(N3CCC(C(=O)N4CC5CC4CN5)CC3)ccnc21 (centres unmarked) [Compound 264, 1-[(2Z)-2-({4-[4-(2,5-diazabicyclo[2.2.1]hept-2-ylcarbonyl)piperidin-1-yl]-1-methyl-1H-pyrrolo[2,3-b]pyridin-3-yl}methylene)-3-oxo-2,3-dihydro-1-benzofuran-5-yl]-3-pyridin-3-ylurea] | 5.20 | 6.42 | 7.78 | 257 to 262 °C (dec.)
CN(C(=O)C1CCN(c2ccnc3c2c(/C=C2\Oc4ccc(NC(=O)Nc5cccnc5)cc4C2=O)cn3C)CC1)c1cccnc1 [Compound 269, N-methyl-1-{1-methyl-3-[(Z)-{3-oxo-5-[(pyridin-3-ylcarbamoyl)amino]-1-benzofuran-2(3H)-ylidene}methyl]-1H-pyrrolo[2,3-b]pyridin-4-yl}-N-pyridin-3-ylpiperidine-4-carboxamide] | 5.30 | 5.24 | 7.89 | 184 to 194 °C
Cn1cc(/C=C2\Oc3ccc(NC(=O)Nc4cccnc4)cc3C2=O)c2c(N3CCC(C(=O)NCc4cccnc4)CC3)ccnc21 [Compound 270, 1-{1-methyl-3-[(Z)-{3-oxo-5-[(pyridin-3-ylcarbamoyl)amino]-1-benzofuran-2(3H)-ylidene}methyl]-1H-pyrrolo[2,3-b]pyridin-4-yl}-N-(pyridin-3-ylmethyl)piperidine-4-carboxamide] | < 5.00 | < 5.00 | 8.22 | 187 to 194 °C
Cn1cc(/C=C2\Oc3ccc(NC(=O)Nc4cccnc4)cc3C2=O)c2c(N3CCC(C(=O)NCc4ccncc4)CC3)ccnc21 [Compound 271, 1-{1-methyl-3-[(Z)-{3-oxo-5-[(pyridin-3-ylcarbamoyl)amino]-1-benzofuran-2(3H)-ylidene}methyl]-1H-pyrrolo[2,3-b]pyridin-4-yl}-N-(pyridin-4-ylmethyl)piperidine-4-carboxamide] | 5.39 | 5.41 | 8.05 | 208 to 216 °C
